Patent EP0142732B1, “Pheophorbide derivatives and pharmaceutical preparations containing them” (TOYO HAKKA KOGYO KABUSHIKI KAISHA, priority 1983, dated 1985)

What follows are compounds tested on nitrosamine-induced cancer cells of the pancreas (assay: N2 pulsed laser spectro-fluorometry of removed organs after administration to tumour-bearing hamsters). Conditions: 24 hours after administration; 5 mg in 1 ml physiological saline.
Type: in vivo, golden hamsters
Procedure: Five mg of the test drug sodium 9-desoxo-9-hydroxy pheophorbide diluted in physiological saline (1 ml) was administered (1 ml) to golden hamsters (5 each for a group) 14-21 days after transplantation of nitrosamine-induced cancer cells of the pancreas, after which cancer cells and other organs were removed. N2-pulsed laser (N2 337 nm, 2 ns 400-1000 nm) was irradiated to each organ thus obtained to measure N2 pulsed laser spectro-fluorometry.
N2 pulsed laser spectro-fluorometry of each removed organ was measured 24 hours and 48 hours afterwards to investigate the wavelengths of 600 to 900 nm based on the peak wavelengths of NADH of 470 nm.
Golden hamsters (5 per one group) 14-21 days after transplantation of nitrosamine-induced cancer cells of the pancreas were administered 5 mg each of sodium 2-desethenyl-2-(1-hydroxyethyl) pheophorbide (sodium salt of (2)), sodium 2-desethynyl-2-(1-hydroxyethyl)-9-desoxo-9-hydroxy pheophorbide (sodium salt (3)), sodium 2-desethenyl-2-(1-acetyloxyethyl)-9-desoxo-9-acetyloxy pheophorbide (sodium salt of (4)), sodium ethylene glycol mono-10b-pheophorbate (sodium salt of (8)), disodium ethylene glycol di-10b-pheophorbate (sodium salt of (10)) and sodium N-phenylalanine 10b-methyl pheophorbid amide (sodium salt of (9)) respectively diluted with physiological saline (1 ml). Cancer cells and other organs were removed, irradiated with N2-pulsed laser (N2, 337 nm, 2 ns 400-1000 nm) to measure N2 pulsed laser spectro fluorometry. Using the. NADH peak wavelength of 470 nm as the reference, wavelengths in the range of from 600-900 nm were studied.
Various organs were removed 24 hours after administration and their N2 pulsed laser spectro-fluorometry was measured.

Compound	accumulation in cancer cells and other organs (N2 pulsed laser spectro-fluorometry)
C=Cc1c(C)c2cc3nc(c4c5[nH]c(cc6nc(cc1[nH]2)C(C)=C6CC)c(C)c5C(O)C4C(=O)OC)C(CCC(=O)O)C3C (stereo not shown) [9-Desoxo-9-hydroxy-pheophorbate (11), 9-desoxo-9-hydroxy-pheophorbide]	generally found in organs

Same assay, conditions: 48 hours after administration; 5 mg in 1 ml physiological saline

Compound	accumulation in cancer cells and other organs (N2 pulsed laser spectro-fluorometry)
C=Cc1c(C)c2cc3nc(c4c5[nH]c(cc6nc(cc1[nH]2)C(C)=C6CC)c(C)c5C(O)C4C(=O)OC)C(CCC(=O)O)C3C (stereo not shown) [9-Desoxo-9-hydroxy-pheophorbate (11), 9-desoxo-9-hydroxy-pheophorbide]	markedly accumulated in cancer cells alone but not in other cells

Same assay, conditions: sodium compounds; organs removed 24 hours after administration; N2 337 nm laser, 600-900 nm

Compound	N2 pulsed laser spectro-fluorometry, wavelengths calculated using the NADH peak wavelength of 470 nm as the reference
9-Desoxo-9-hydroxy-pheophorbide C	0.32
CCC1=C(C)c2cc3[nH]c(cc4nc(c5c6[nH]c(cc1n2)c(C)c6C(OC(C)=O)C5C(=O)OC)C(CCC(=O)O)C4C)c(C)c3C(C)OC(C)=O (stereo not shown) [2-Desethenyl-2-(1-acetyloxyethyl)-9-desoxo-9-acetyloxypheophorbide]	0.48
CCC1=C(C)c2cc3[nH]c(cc4nc(c5c6[nH]c(cc1n2)c(C)c6C(O)C5C(=O)OC)C(CCC(=O)O)C4C)c(C)c3C(C)OC(C)=O (stereo not shown) [2-Desethenyl-2-(1-acetyloxyethyl)-9-desoxo-9-hydroxy-pheophorbide]	0.95
CCC1=C(C)c2cc3[nH]c(cc4nc(c5c6[nH]c(cc1n2)c(C)c6C(O)C5C(=O)OC)C(CCC(=O)O)C4C)c(C)c3C(C)O (stereo not shown) [2-desethenyl-2-(1-hydroxyethyl)-9-desoxo-9-hydroxy-pheophorbide]	3.13
CCC1=C(C)c2cc3[nH]c(cc4nc(c5c6[nH]c(cc1n2)c(C)c6C(=O)C5C(=O)OC)C(CCC(=O)O)C4C)c(C)c3C(C)O (stereo not shown) [2-desethenyl-2-(1-hydroxyethyl)-pheophorbide]	1.90
C=Cc1c(C)c2cc3nc(c4c5[nH]c(cc6nc(cc1[nH]2)C(C)=C6CC)c(C)c5C(OC(C)=O)C4C(=O)OC)C(CCC(=O)O)C3C (stereo not shown) [9-Desoxo-9-acetyloxy-pheophorbide, 9-desoxo-9-acetyloxy-pheophorbide]	0.89
C=Cc1c(C)c2cc3nc(c4c5[nH]c(cc6nc(cc1[nH]2)C(C)=C6CC)c(C)c5C(O)C4C(=O)OC)C(CCC(=O)O)C3C (stereo not shown) [9-Desoxo-9-hydroxy-pheophorbate (11), 9-desoxo-9-hydroxy-pheophorbide]	0.93
C=Cc1c(C)c2cc3nc(c4c5[nH]c(cc6nc(cc1[nH]2)C(C)=C6CC)c(C)c5C(O)C4)C(CCC(=O)O)C3C (stereo not shown) [9-Desoxo-9-hydroxy-pyropheophorbide]	0.98
C=Cc1c(C)c2cc3nc(c4c5[nH]c(cc6nc(cc1[nH]2)C(C)=C6CC)c(C)c5C(O)C4C(=O)OCCOC(=O)C1c2c4nc(cc5[nH]c(cc6nc(cc7[nH]c2c(c7C)C1O)C(CC)=C6C)c(C=C)c5C)C(C)C4CCC(=O)O)C(CCC(=O)O)C3C (stereo not shown) [Ethylene glycol di-10b-9-desoxo-9-hydroxypheophorbate]	2.50
C=Cc1c(C)c2cc3nc(c4c5[nH]c(cc6nc(cc1[nH]2)C(C)=C6CC)c(C)c5C(=O)C4C(=O)OCCOC(=O)C1C(=O)c2c(C)c4cc5nc(cc6[nH]c(cc7nc(c1c2[nH]4)C(CCC(=O)O)C7C)c(C)c6C=C)C(C)=C5CC)C(CCC(=O)O)C3C (stereo not shown) [Ethylene glycol di-10b-pheophorbate (10), ethylene glycol di-10b-pheophorbate]	2.78
C=Cc1c(C)c2cc3nc(c4c5[nH]c(cc6nc(cc1[nH]2)C(C)=C6CC)c(C)c5C(O)C4C(=O)OCCO)C(CCC(=O)O)C3C (stereo not shown) [Ethylene glycol mono-10b-9-desoxo-9-hydroxy-pheophorbate]	2.10
C=Cc1c(C)c2cc3nc(c4c5[nH]c(cc6nc(cc1[nH]2)C(C)=C6CC)c(C)c5C(=O)C4C(=O)OCCOC(C)=O)C(CCC(=O)O)C3C (stereo not shown) [Monoacetylethylene glycol mono-10b-pheophorbate]	1.30
C=Cc1c(C)c2cc3nc(c4c5[nH]c(cc6nc(cc1[nH]2)C(C)=C6CC)c(C)c5C(O)C4C(=O)NC(Cc1ccccc1)C(=O)O)C(CCC(=O)OC)C3C (stereo not shown) [N-Phenylalanine 10b-9-desoxo-9-hydroxy-methylpheophorbidamide]	0.73
C=Cc1c(C)c2cc3nc(c4c5[nH]c(cc6nc(cc1[nH]2)C(C)=C6CC)c(C)c5C(=O)C4C(=O)NC(Cc1ccccc1)C(=O)O)C(CCC(=O)OC)C3C (stereo not shown) [N-phenylalanine 10b-methylpheophorbidamide]	0.75
C=Cc1c(C)c2cc3nc(c4c5[nH]c(cc6nc(cc1[nH]2)C(C)=C6CC)c(C)c5C(=O)C4C(=O)OC)C(CCC(=O)O)C3C (stereo not shown) [Pheophorbide (1), pheophorbide]	0.78
C=Cc1c(C)c2cc3nc(c4c5[nH]c(cc6nc(cc1[nH]2)C(C)=C6CC)c(C)c5C(=O)C4)C(CCC(=O)O)C3C (stereo not shown) [Pyropheophorbide, reference compound]	0.25
C=Cc1c(C)c2cc3nc(c4c5[nH]c(cc6nc(cc1[nH]2)C(C)=C6CC)c(C)c5C(=O)C4C(=O)OCCO)C(CCC(=O)O)C3C (stereo not shown) [ethylene glycol mono-10b-pheophorbate]	1.72
Ethylene glycol di-10b-2-desethenyl-2-(1-hydroxyethyl)-9-desoxo-9-hydroxy-pheophorbate	1.80
Ethylene glycol di-10b-2-desethenyl-2-(1-hydroxyethyl)-pheophorbate	2.50
Monoacetylethylene glycol mono-10b-9-desoxo-9-acetyloxy-pheophorbate	0.85
Monoacetylethylene glycol mono-10b-9-desoxo-9-hydroxy-pheophorbate	1.20

Each compound was assayed on leukemic Molt 4 Cell (assay: Biochemiluminescence by single photoncounter system after laser irradiation (destruction of cancer cells)). Conditions: Homo sapiens, 100 µg/2 ml, incubated 24 hours at 37°C, He-Ne laser 630 nm, 10 min, 20 mW, read-out: cancer cells destroyed.
Type: cell-based
Procedure: Sodium 9-desoxo-9-hydroxy pheophorbide dissolved in physiological saline of respective concentrations (25 µg/2 ml, 50 µg/2 ml, […]) was added to leukemic Molt 4 Cell ([…] Cells) and the resultant product was incubated for 24 hours at 37°C.
Each incubated cell thus obtained was irradiated with laser (He-Ne gas, 630 nm, 10 min, 20 mW) and trace biochemiluminescence was measured by single photoncounter system.
Intensity of biochemiluminescence substantially correponds to the degree of destructive effect on cancer cells and thus by studying the biochemiluminescence by single photoncounter system, it is possible to predict the destructive effect on cancer cells.
Leukemic Molt 4 cell ([…] cells) was added with physiological saline containing sodium 2- desethenyl-2-(1-hydroxyethyl) pheophorbide (sodium salt of (2)) in respective concentrations ([…], 100 µg/2 ml) and then incubated (37°C, 24 hours). Incubated cells each were irradiated with laser ([…], 630 nm, 10 min, 20 mW) to investigate generation of biochemiluminescence by single photoncounter system by measuring biochemiluminescence; The intensity of biochemiluminescence by single photoncounter system substantially corresponds to the degree of destruction of the cancer cells. […]

Compound	cytotoxicity at 50 µg/mL
CCC1=C(C)c2cc3[nH]c(cc4nc(c5c6[nH]c(cc1n2)c(C)c6C(=O)C5C(=O)OC)C(CCC(=O)O)C4C)c(C)c3C(C)O (stereo not shown) [2-desethenyl-2-(1-hydroxyethyl)-pheophorbide]	> 95%
C=Cc1c(C)c2cc3nc(c4c5[nH]c(cc6nc(cc1[nH]2)C(C)=C6CC)c(C)c5C(O)C4C(=O)OC)C(CCC(=O)O)C3C (stereo not shown) [9-Desoxo-9-hydroxy-pheophorbate (11), 9-desoxo-9-hydroxy-pheophorbide]	> 95%
